The molecules below were run against Falcipain-2 (Plasmodium falciparum, UniProt Q9NAW2) (assay: Falcipain Enzyme Inhibition Assay). Conditions: pH 5.5; 22 °C.
Protocol: The substrate peptide terminating in AMC is processed by falcipain-2 with or without inhibitors, and the accumulation of AMC was monitored in a Labsystems Fluoroskan Ascent spectrofluorometer. IC50 values were determined from plots of percent activity over concentration using GraphPad Prism software.

Chain of Falcipain-2 (Q9NAW2 whole entry): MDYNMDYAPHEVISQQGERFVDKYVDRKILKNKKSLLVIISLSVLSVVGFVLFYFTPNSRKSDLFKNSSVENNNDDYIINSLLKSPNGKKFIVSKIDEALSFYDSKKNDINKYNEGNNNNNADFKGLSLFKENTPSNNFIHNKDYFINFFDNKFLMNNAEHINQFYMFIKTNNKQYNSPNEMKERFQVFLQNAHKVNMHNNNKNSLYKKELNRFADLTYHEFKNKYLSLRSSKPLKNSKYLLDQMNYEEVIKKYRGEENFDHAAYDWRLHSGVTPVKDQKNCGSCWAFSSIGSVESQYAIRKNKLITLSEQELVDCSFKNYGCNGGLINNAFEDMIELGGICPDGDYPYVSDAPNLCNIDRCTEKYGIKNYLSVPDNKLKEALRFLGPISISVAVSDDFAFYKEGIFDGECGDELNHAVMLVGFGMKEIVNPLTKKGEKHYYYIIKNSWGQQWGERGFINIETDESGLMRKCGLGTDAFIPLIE

SMILES | IC50
O=C(Nc1ccc(Cl)cc1)Nc1ccc(C(=O)/C=C/c2cccnc2)cc1 [3-(4-chlorophenyl)-1-{4-[(2E)-3-(pyridin-3-yl)prop-2-enoyl]phenyl}urea] | 3.4 µM
COc1ccc(NC(=O)Nc2ccc(C(=O)/C=C/c3cccnc3)cc2)cc1 [3-(4-methoxyphenyl)-1-{4-[(2E)-3-(pyridin-3-yl)prop-2-enoyl]phenyl}urea] | 12.5 µM
CC(C)C[C@H](NC(=O)[C@@H]1O[C@H]1C(=O)O)C(=O)NCCCCN=C(N)N [L-trans-3-Carboxyoxiran-2-carbonyl-L-leucylagmatine] | 0.058 µM

Source: BindingDB's records for doi:10.1021/jm058208o (Universidad Central De Venezuela, 2005)
